Measured values taken from patent EP3959993B1, “METHOD FOR SOLVENT FREE PRODUCTION OF AROMA CONCENTRATES” (Symrise AG, priority 2020, dated 2022).

What was measured:
[1] = theoretical solubility, values known in the literature; cited from earlier work
[2] = Influence of the amount of NaCl on the distribution between oil phase and water phase (Example 5); assay type: physicochemical
[3] = Second oil phase obtained by adding NaCl to the water phase (Example 4); assay type: physicochemical; conditions: after separating oil phases I and II
Protocol: Cross linked polystyrene was used as adsorbent material. The volume flux for loading the adsorbent was 300 ml/min.
The adsorbent was heated to 150 °C, the temperature of the applied water steam was 160 °C.
The water steam flux was 10 g/min and was applied for 100 min.
The oil and water phases were separated.
A second oil phase was separated and was collected.

SMILES	Solubility in water (%) [1]	Distribution in [%] between oil phase and water phase after condensation: Oil phase ([2]; NaCl 0%)	Distribution in [%] between oil phase and water phase after condensation: Water phase ([2]; NaCl 0%)	Distribution in [%] between oil phase and water phase after condensation: Oil phase ([2]; NaCl 27.8 %)	Distribution in [%] between oil phase and water phase after condensation: Water phase ([2]; NaCl 27.8 %)	Distribution in [%] between oil phase and water phase after condensation: Oil phase ([2]; NaCl 41.67%)	Distribution in [%] between oil phase and water phase after condensation: Water phase ([2]; NaCl 41.67%)	Distribution in [%] between oil phase and water phase after condensation: Oil phase ([2]; NaCl 55.56 %)	Distribution in [%] between oil phase and water phase after condensation: Water phase ([2]; NaCl 55.56 %)	Distribution in [%] between oil phase and water phase after condensation: Oil phase ([2]; NaCl 69.44 %)	Distribution in [%] between oil phase and water phase after condensation: Water phase ([2]; NaCl 69.44 %)	Distribution in [%] between oil phase and water phase after condensation: Oil phase ([2]; NaCl 83.33 %)	Distribution in [%] between oil phase and water phase after condensation: Water phase ([2]; NaCl 83.33 %)	Loss in the water phase [3]
O=P([O-])([O-])OP(=O)([O-])OP(=O)([O-])[O-].[Na+].[Na+].[Na+].[Na+].[Na+] [Triphosphate (Na)]	14.5%													
CCCCCCCCO [octanol]		91.3%	8.7%	100%	0%	100%	0%	100%	0%	100%	0%	100%	0%	0,0%
[Cl-].[K+] [Potassium chloride]	34.7%													
CCCCCCCO [heptanol]		76.2%	23.8%	100%	0%	100%	0%	100%	0%	100%	0%	100%	0%	0,0%
